Key:
[1] = system: two-cell stage embryo of a heterologous inbred SPR2 mouse; assay: Heterologous Tyr knockout mouse production (Treatment Example 8); type: cell-based, Mus spretus; conditions: SPR2, Tyr KO
Description: (§1) 1. Up to 3 hours before TAKE, Y-27632-added mWM medium (Y-27632 final concentration 10 μM, an example of the “temporary treatment medium” of this example), Y-27632-free mWM medium (an example of “normal medium” of this example) were dropped into 35 mm Petri dishes by 5 drops, respectively, to prepare drops covered with paraffin oil.
(§2) 2. Two-cell stage embryos were collected from the drops or thawed, placed in Y-27632-added mWM medium, and cultured for about 30 minutes to 1 hour (temporary treatment).
(§3) 3. After that, TAKE was performed.
(§4) 4. After TAKE, the embryos were placed in Y-27632-added mWM medium and cultured for about 30 minutes to 1 hour (temporary treatment). Then, the embryos were placed in Y-27632-free mWM medium and cultured at 37° C. under 5% CO2 and 5% O2 conditions until transplantation.
By using a two-cell stage embryo of a heterologous inbred SPR2 mouse, four guide RNAs (crRNA: tracrRNA) for the Tyr gene were used about 100 ng/μL per RNA, for a total of about 400 ng/μL, and it was electroporated once or twice. Before and after electroporation, the embryos were cultured in the temporary treatment medium of this example.

[2] = system: Early embryos of the heterologous inbred SPR2 mouse; assay: ES cell establishment from electroporated early embryos (Treatment Example 4); type: cell-based, Mus spretus; conditions: SPR2 early embryos cultured in Y-27632 medium, then electroporated
Description: as §1, §2, §3, §4
5. Then, if necessary, the culture was continued in the Y-27632-free mWM medium to establish ES cells.
When Mus caroli ES cells were knocked out of the Tyr gene by genome editing and a part of them was analyzed, it was shown that NHEJ occurred and heterologous mouse ES cells were established.

[3] = system: two-cell frozen embryos of heterologous inbred SPR2 mouse; assay: Individual production from frozen eggs of SPR2 (Treatment Example 3); type: cell-based, Mus spretus; conditions: SPR2 frozen 2-cell embryos thawed, 1 hour in Y-27632 medium
Description: 1. Up to 3 hours before TAKE, Y-27632-added mWM medium (Y-27632 final concentration 10 μM, an example of the “temporary treatment medium” of this example), Y-27632-free mWM medium (an example of “normal medium” of this example) were dropped into 35 mm Petri dishes by 5 drops, respectively, to prepare drops covered with paraffin oil. 2. Two-cell stage embryos were collected from the drops or thawed, placed in Y-27632-added mWM medium, and cultured for about 30 minutes to 1 hour (temporary treatment). According to a typical method, in the afternoon when female mice and rats were mated with males with vasoligation and confirmed to be plugged, about 10 each were transplanted into the left and right oviducts or uterus of plug-confirmed mature female mice and rats. In this production example, two-cell frozen embryos of SPR2 were thawed, cultured in a temporary treatment medium containing Y-27632 for 1 hour, and transplanted into the uterus of a pseudopregnant female mouse. […] As a result, frozen embryo-derived individuals (16 transplanted embryos, 6 newborns) were obtained.

[4] = system: early embryos of immunodeficient mouse NOD-scid; assay: Genome editing efficiency of multiple targets (Treatment Example 19); type: cell-based; conditions: Bbox1, IL2RG, 4 target sites
Description: Electroporation (genome editing) of high-concentration RNA-protein mixed with CRISPR-Cas9 at multiple sites (4 sites in total) of a plurality of genes in early embryos of immunodeficient mice, which are extremely difficult to manipulate and prepare, was performed, transplanted into the recipient's uterus, and the offspring were obtained.

inbred mouse B6J embryos = assay: Generation of Flox inbred mice (individuals) by one-step method, high concentration ssODN (Treatment Example 11); type: cell-based; conditions: floxed MK2 1STEP (HIGH CONCENTRATION)
Description: Furthermore, in the same manner, the individual production is performed in an inbred mouse B6J strain by an electroporation method (1STEP method) by using a high concentration ssODN.

[5] = system: Wistar-Imamichi and WKY rat embryos; assay: Klotho (40 kbp) large deletion knockout rats by electroporation (Treatment Example 13); type: cell-based; conditions: for large deletion (proportion of individuals) / large deletion (%): Klotho
Description: In the Wistar-Imamichi line, which are similar to the inbred line, and the inbred WKY line, when the Klotho gene (40 kbp), of which whole gene could not normally be deleted, were knocked out by electroporation, the temporarily treatment is processed as similar to Example 1 as described above. Specifically, before and after electroporation, 1 hour of temporary treatment, 24 hours of culture in the normal medium (waiting period), and 1 hour of temporary treatment were performed.

[6] = 16 blastocysts transferred to uterus (3.5 days)
[7] = Wistar-Imamichi, HIGH CONCENTRATION
[8] = Wistar-Imamichi, 164 transferred embryos
[9] = Wistar-Imamichi, LOW CONCENTRATION

C[C@@H](N)[C@H]1CC[C@H](C(=O)Nc2ccncc2)CC1 [Y-27632, trans-4-[(1R)-1-Aminoethyl]-N-4-pyrid inylcyclohexanecarboxamide]
mosaics obtained ([1]; electroporated once): 3 | individuals obtained ([1]; electroporated once, 20 embryos transplanted): 7 | mosaics obtained ([1]; electroporated twice): 3 | whites (homo or compound heterozygote) obtained ([1]; electroporated twice): 3 | individuals obtained ([1]; electroporated twice, 13 embryos transplanted): 7 | ES cells established [2]: at a high rate | NUMBER OF BIRTHS FEMALE [3, 6]: 4 | NUMBER OF BIRTHS MALE [3, 6]: 2 | NUMBER OF BIRTHS TOTAL (newborns) ([3]; 16 embryos transferred to uterus (3.5 days)): 6 | KO % ([4]; 47 embryos transferred): 57% | Pups ([4]; 47 embryos transferred): 7 | Pups (KO) ([4]; 47 embryos transferred): 4 | KO % ([4]; 49 embryos transferred): 100% | Pups ([4]; 49 embryos transferred): 2 (2) | Pups (KO) ([4]; 49 embryos transferred): 2 (2) | Flox individuals % (inbred mouse B6J embryos): 16.7% | NUMBER OF FLOX INDIVIDUALS (inbred mouse B6J embryos): 1/6 | large deletion (proportion of individuals) ([5]; WKY, high concentration, many pulses, 15 transferred embryos): 2/3 | large deletion (%) ([5]; WKY, high concentration, many pulses, listed as +Y): (66%) | large deletion (%) ([5]; WKY, high concentration, many pulses, listed as Y): 66.6% | KLOTHO LARGE DELETION HETERO % [5, 7]: 41.3% | KLOTHO LARGE DELETION HOMO % [5, 7]: 23.2% | NUMBER OF INDIVIDUALS, KLOTHO LARGE DELETION HETERO [5, 7]: 19/46 | NUMBER OF INDIVIDUALS, KLOTHO LARGE DELETION HOMO [5, 7]: 10/46 | large deletion (%) [5, 8]: (63%) | large deletion (proportion of individuals) [5, 8]: 29/46 | KLOTHO LARGE DELETION HETERO % [5, 9]: 16.6% | KLOTHO LARGE DELETION HOMO % [5, 9]: 0% | NUMBER OF INDIVIDUALS, KLOTHO LARGE DELETION HETERO [5, 9]: 3/18 | NUMBER OF INDIVIDUALS, KLOTHO LARGE DELETION HOMO [5, 9]: 0/18

Source: patent US20230220331A1, “TEMPORARY TREATMENT MEDIUM, TREATMENT KIT, EMBRYOGENESIS ARREST INHIBITOR, EMBRYOGENESIS ARREST INHIBITORY METHOD, DEVELOPMENTAL ENGINEERING PRODUCT PREPARATION METHOD, TRANSPLANTATION METHOD, THERAPEUTIC METHOD, AND DEVELOPMENTAL ENGINEERING PRODUCT” (priority 2020, published 2023)
